Assay results reported in patent publication US20040247589A1, “Anti-tumor activity from reptile serum” (priority 2001, published 2004).

Assays:
normal bone marrow cells = test: Cell proliferation assay (BrdU) in normal bone marrow cells; assay type: cell-based; conditions: normal human bone marrow cells
Procedure: (§1) Cell proliferation was assayed using the commercial ELISA kit BIOTRACK™ (RPN250, Amersham Life Sciences). The assay is based on incorporation of 5-bromo-2′-deoxyuridine (BrdU) during DNA synthesis. After treatment of cells with the tested agent for 24 hours, cells are incubated for 18 hours in the presence of 10 μM BrdU. This pyrimidine analog is incorporated into DNA and is detected using specific antibody conjugated to peroxidase following 3,3′,5′,5′-tetramethylbenzidine (TMB) as a substrate. The absorbance of the enzymatic product is measured at 450 nm.

PN71 cells = test: Cell proliferation assay (BrdU) in PN71 cells; assay type: cell-based, murine
Procedure: as §1

## Nc1ccn([C@@H]2O[C@H](CO)[C@@H](O)[C@@H]2O)c(=O)n1 [Cytosar, Cytarabine]
Normal bone marrow cells
  effect on proliferation (BrdU) of normal bone marrow cells: indiscriminately destroys
PN71 cells
  effect on proliferation (BrdU) of PN71 cells: indiscriminately destroys
